Experimental findings from patent US20250170218A1, “STABLE PHARMACEUTICAL COMPOSITION OF RECEPTOR AGONIST, AND PREPARATION METHOD AND APPLICATION THEREOF” (JIANGSU HANSOH PHARMACEUTICAL GROUP CO., LTD., priority 2022, published 2025) are described below.

Structures are written as SMILES. Where two headings read alike, the source gives them in different places. Numbered stars: 1 amine (or outer) side, 2 acyl side, 3 side chain; on linkers, the order of the positions; unused ones are H or OH. Square brackets hold non-standard residues; d marks the D form. Side chains are listed from the residue outwards. Peptide text beside a SMILES is read from it. * marks the point of attachment. ξ: configuration not given here. C20 diacid = O=C(O)CCCCCCCCCCCCCCCCCCC(=O)*; γGlu = O=C(O)[C@H](CCC(=O)[*:2])N[*:1]; AEEA = NCCOCCOCC(=O)O; Aib = CC(C)(N)C(=O)O; ξP = O=C(O)C1CCCN1

The conditions of data set [1]: acids, alkalis, oxidation or high temperature.
The nature of data set [2]: Pharmacokinetic study in cynomolgus monkeys after single subcutaneous or intravenous injection. In kind it is in vivo. The protocol:
The administration doses for 4 groups, i.e., intravenous injection group, low-dose subcutaneous injection group, medium-dose subcutaneous group and high-dose subcutaneous injection group, were 0.1, 0.03, 0.1, and 0.3 mg/kg, respectively, all by single administration.

Data set [3] is described as follows: Influencing factor test of the bulk drug. In kind it is physicochemical. The settings on record: high temperature or illumination.

On to `CC[C@H](C)[C@H](NC(=O)[C@H](CCCCN)NC(=O)[C@H](CCC(=O)O)NC(=O)[C@H](CC(C)C)NC(=O)[C@H](Cc1ccc(O)cc1)NC(=O)[C@@H](NC(=O)[C@H](CO)NC(=O)[C@H](Cc1ccc(O)cc1)NC(=O)[C@H](CC(=O)O)NC(=O)[C@H](CO)NC(=O)[C@@H](NC(=O)[C@H](Cc1ccccc1)NC(=O)[C@@H](NC(=O)CNC(=O)[C@H](CCC(=O)O)NC(=O)C(C)(C)NC(=O)[C@@H](N)Cc1ccc(O)cc1)[C@@H](C)O)[C@@H](C)O)[C@@H](C)CC)C(=O)N[C@@H](C)C(=O)N[C@@H](C)C(=O)N[C@@H](CCC(N)=O)C(=O)N[C@@H](CCC(=O)O)C(=O)N[C@@H](Cc1ccccc1)C(=O)N[C@H](C(=O)N[C@@H](CC(N)=O)C(=O)N[C@@H](Cc1c[nH]c2ccccc12)C(=O)N[C@@H](CC(C)C)C(=O)N[C@@H](CC(C)C)C(=O)N[C@@H](C)C(=O)NCC(=O)NCC(=O)N1CCCC1C(=O)N[C@@H](CO)C(=O)N[C@@H](CO)C(=O)NCC(=O)N[C@@H](C)C(=O)N1CCC[C@H]1C(=O)N1CCCC1C(=O)N1CCC[C@H]1C(=O)N[C@@H](CO)C(=O)N[C@@H](CCCCNC(=O)COCCOCCNC(=O)COCCOCCNC(=O)CC[C@H](NC(=O)CCCCCCCCCCCCCCCCCCC(=O)O)C(=O)O)C(N)=O)C(C)C` (some centres unmarked) [Active ingredient] (H-Y[Aib]EGTFTSDYSIYLEKIAAQEFVNWLLAGG[ξP]SSGAP[ξP]PSK([AEEA-AEEA-γGlu-C20 diacid])-NH2), for which the “degradation in stressing test” value in data set [1] is on record as “significant degradations”. In addition, the “exposure (AUClast) in animals of different sexes” value in data set [2] is “no statistical difference”. The Vd in data set [2] (cynomolgus monkey, in vivo, intravenous, 0.1 mg/kg, single, read-out: apparent volume of distribution Vd) lay within 0.066 to 0.0681 L/kg. The clearance in data set [2] (cynomolgus monkey, in vivo, intravenous, 0.1 mg/kg, single, read-out: clearance CL) was 21.4 to 22.3 mL/day/kg. In addition, the half-life in data set [2] (cynomolgus monkey, in vivo, intravenous, 0.1 mg/kg, single, read-out: elimination half-life t1/2) was in the range of 2.11 to 2.15 days; in data set [2] (cynomolgus monkey, in vivo, sc, single subcutaneous injection, read-out: elimination half-life T1/2) it was 2.04 to 2.73 days. Besides, the Tmax in data set [2] (cynomolgus monkey, in vivo, sc, single subcutaneous injection, read-out: time to peak drug concentration Tmax) fell in the range of 13.3 to 18 h. Further, in data set [3], the “polymer in influencing factor test” value is recorded as “polymer growth”.
